Source: patent US6737383B1, “Herbicidal oxadiazolidines” (priority 1999, dated 2004)

What was measured:
[1] = test system: sourgrass; assay: Test D sourgrass; type: in vivo, Trichachne insularis; conditions: Preemergence, 0 to 100 scale
Source text: (§1) Seeds, tubers, or plant parts of Alexandergrass (Brachiaria plantaginea), bermuda-grass (Cynodon dactylon), common pursiane (Portulaca oleracea), common ragweed (Ambrosia elatior), common groundsel (Senecio vulgaris), dallisgrass (Paspalum dilatatum), goosegrass (Eleusine indica), guineagrass (Panicum maximum), itchgrass (Rottboellia exaltata), Johnson grass (Sorghum halepense), large crabgrass (Digitaria sanguinalis), pitted morningglory (Ipomoea lacunosa), purple nutsedge (Cyperus rotundus), sandbur (Cenchrus echinatus), sourgrass (Trichachne insularis), Spanishneedles (Bidens bipinnata), surinam grass (Brachiaria decumbens) and tall mallow (Malva sylvestris) were planted into greenhouse pots of flats containing greenhouse planting medium. Plant species were grown in separate pots or individual compartments. Preemergence applications were made within one day of planting the seed or plant part.
(§2) Test chemicals were formulated in a non-phytotoxic solvent mixture which included a surfactant and applied preemergence to the surface of the pot containing seeds in a sandy loam soil. Untreated control pots and treated pots were placed in the greenhouse for growth and visually evaluated for injury 14 to 21 days after herbicide application. Plant response ratings, summarized in Table C, are based on a 0 to 100 scale where 0 is no injury and 100 is complete control. A dash (−) response means no test result.

[2] = test system: spring barley; assay: Test E spring barley; type: in vivo, Hordeum vulgare; conditions: Postemergence
Protocol: (§3) Compounds evaluated in this test were formulated in a non-phytotoxic solvent mixture which included a surfactant and applied to plants that were in the 1- to 4-leaf stage (postemergence application). A mixture of sandy loam soil and greenhouse potting mix in a 60:40 ratio was used for the postemergence test.
(§4) Plantings of these crops and weed species were adjusted to produce plants of appropriate size for the postemergence test. All plant species were grown using normal greenhouse practices. Crop and weed species include annual bluegrass (Poa annua), blackgrass (Alopecurus myosuroides), black nightshade (Solanum nigra), chickweed (Stellaria media), common poppy (Papaver rhoeas), deadnettle (Lamium amplexicaule), downy brome (Bromus tectorum), field violet (Viola arvensis), galium (Galium aparine), green foxtail (Setaria viridis), Italian ryegrass (Lolium multiflorum), jointed goatgrass (Aegilops cylindrica), kochia (Kochia scoparia), lambsquarters (Chenopodium album), littleseed canarygrass (Phalaris minor), rape (Brassica napus), redroot pigweed (Amaranthus retroflexus), Russian thistle (Salsola kali), scentless chamomile (Matricaria inodora), spring barley (Hordeum vulgare), sugar beet (Beta vulgaris), sunflower (Helianthus annuus), ivyleaf speedwell (Veronica hederaefolia), spring wheat (Triticum aestivum), winter wheat (Triticum aestivum), wild buckwheat (Polygonum convolvulus), wild mustard (Sinapis arvensis), wild oat (Avena fatua), windgrass (Apera spica-venti) and winter barley (Hordeum vulgare).
(§5) Treated plants and untreated controls were maintained in a greenhouse for approximately 21 to 28 days, after which all treated plants were compared to untreated controls and visually evaluated. […] A dash response (-) means no test result.

[3] = test system: sugar beet; assay: Test E sugar beet; type: in vivo, Beta vulgaris; conditions: Preemergence
[4] = test system: spring wheat; assay: Test E spring wheat; type: in vivo, Triticum aestivum; conditions: Preemergence
[5] = test system: Green foxtail; assay: Test D green foxtail; type: in vivo; conditions: Preemergence, 0 to 100 scale
Source text: as §1
as §2, with “A dash (−) response means no test result.” left out

[6] = test system: Green foxtail; assay: Test D green foxtail; type: in vivo
Source text: as §1, §2

[7] = test system: ladysthumb smartweed; assay: Test C postemergence ladysthumb smartweed; type: in vivo, Polygonum persicaria; conditions: 0 to 100 scale, 0 no effect, 100 complete control
Outline: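 Postemergence spray; formulation = non-phytotoxic solvent + surfactant; soil 60:40 sandy loam:greenhouse potting mix; greenhouse, ~14–21 d; visual rating vs untreated, 0–100 (100 = complete control).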

[8] = test system: scentless chamomile; assay: Test E scentless chamomile; type: in vivo, Matricaria inodora; conditions: Preemergence
[9] = test system: downy brome; assay: Test E downy brome; type: in vivo, Bromus tectorum; conditions: Preemergence
[10] = test system: windgrass; assay: Test E windgrass; type: in vivo, Apera spica-venti; conditions: Postemergence, Rate 62 g/ha; 0 to 100 scale
Protocol: as §3
Plantings of these crops and weed species were adjusted to produce plants of appropriate size for the postemergence test. All plant species were grown using normal greenhouse practices. […]
Treated plants and untreated controls were maintained in a greenhouse for approximately 21 to 28 days, after which all treated plants were compared to untreated controls and visually evaluated. […]

[11] = test system: wild mustard; assay: Test E wild mustard; type: in vivo, Sinapis arvensis; conditions: Postemergence
Protocol: […] A mixture of sandy loam soil and greenhouse potting mix in a 60:40 ratio was used for the postemergence test.
as §4, §5

[12] = test system: barnyardgrass; assay: Test A barnyardgrass; type: in vivo, Echinochloa crus-galli; conditions: 0 to 10 scale where 0 is no effect and 10 is complete control
Outline: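 Visual injury score, 0 (no effect) to 10 (complete control), vs untreated controls at ~11 d in greenhouse. Pre: soil drench on sandy loam. Post: spray to runoff, 1–2 leaf stage.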

[13] = Rate 250 g/ha, 0 to 100 scale (0 no effect, 100 complete control)
[14] = Rate 62 g/ha, 0 to 100 scale, 0 no effect, 100 complete control
[15] = Rate 125 g/ha, 0 to 100 scale (0 no effect, 100 complete control)
[16] = Rate 64 g/ha, Preemergence; 0 to 100 scale, 0 no injury, 100 complete control
[17] = Rate 125 g/ha, Preemergence; 0 to 100 scale, 0 no injury, 100 complete control
[18] = Rate 500 g/ha, 0 to 100 scale, 0 no effect, 100 complete control
[19] = Rate 500 g/ha, 0 to 100 scale where 0 is no effect and 100 is complete control

SMILES	Plant response rating, Spring Barley ([2]; Rate 62 g/ha, 0 to 100 scale)	Plant response rating, Spring Barley ([2]; Rate 125 g/ha, 0 to 100 scale)	Plant response rating, Spring Barley [2, 13]	Plant response rating, Sugar beet [3, 15]	Plant response rating, Sugar beet ([3]; Rate 250 g/ha, 0 to 100 scale)	Plant response rating, Spring Wheat [4, 15]	Plant response rating, Spring Wheat ([4]; Rate 250 g/ha, 0 to 100 scale)	Green foxtail plant response rating [6, 16]	Plant response rating, Green foxtail [6, 16]	Plant response rating, Downy brome [9, 15]	Plant response rating, Downy brome ([9]; Rate 250 g/ha, 0 to 100 scale)	Plant response rating, Windgrass [10]	Plant response rating, Wild mustard ([11]; Rate 62 g/ha, 0 to 100 scale)	Plant response rating, Wild mustard ([11]; Rate 125 g/ha, 0 to 100 scale)	Plant response rating, Wild mustard [11, 13]	Plant response rating, Barnyardgrass ([12]; Postemergence, Rate 1000 g/ha)	Plant response rating, Barnyardgrass ([12]; Pre-emergence, Rate 2000 g/ha)	other results
Cc1cccc(C)c1-n1c(=O)on(C(=O)N(c2ccc(F)cc2F)C(C)C)c1=O [Compound 28]	–	–	–	–	–	–	–	–	–	–	–	–	–	–	–	–	–	Plant response rating, Sourgrass ([1]; Rate 32 g/ha, 0 no injury, 100 complete control): 60; Sourgrass plant response rating ([1]; Rate 64 g/ha, 0 no injury, 100 complete control): 85; Sourgrass plant response rating ([1]; Rate 125 g/ha, 0 no injury, 100 complete control): 100; Plant response rating, Sourgrass ([1]; Rate 250 g/ha): 100
CCn1c(=O)on(C(=O)N(c2ccc(F)cc2)C(C)C)c1=O [Compound 107]	20	0	30	100	100	75	85	100	100	60	75	85	5	90	40	–	–	Plant response rating, Sugar beet [3, 14]: 70; Plant response rating, Spring Wheat [4, 14]: 60; Plant response rating, Green foxtail ([5]; Rate 250 g/ha): 100; Plant response rating, Green foxtail ([5]; Rate 500 g/ha): 100; Plant response rating, Green foxtail ([6]; Preemergence; Rate 16 g/ha; 0 to 100 scale, 0 no injury, 100 complete control): 100; Plant response rating, Green foxtail ([6]; Preemergence; Rate 32 g/ha; 0 to 100 scale, 0 no injury, 100 complete control): 100; Plant response rating, Green foxtail ([6]; Rate 16 g/ha; Preemergence; 0 to 100 scale, 0 no injury, 100 complete control): 100; Plant response rating, Green foxtail ([6]; Rate 32 g/ha; Preemergence; 0 to 100 scale, 0 no injury, 100 complete control): 100; Green foxtail plant response rating [6, 17]: 100; Plant response rating, Green foxtail [6, 17]: 100; Plant response rating, Green foxtail ([6]; Rate 250 g/ha; Preemergence; 0 to 100 scale): 100; Plant response rating, Green foxtail ([6]; Rate 500 g/ha, Preemergence; 0 to 100 scale): 100; Plant response rating Ladysthumb ([7]; Rate 140 g/ha): 0; Plant response rating Ladysthumb ([7]; Rate 560 g/ha): 30; Plant response rating, Scentless chamo [8, 14]: 70; Plant response rating, Scentless chamo [8, 15]: 80; Plant response rating, Scentless chamo ([8]; Rate 250 g/ha, 0 to 100 scale): 90; Plant response rating, Downy brome [9, 14]: 50
CCn1c(=O)on(C(=O)N(c2ccc(F)cc2F)C(C)C)c1=O [Compound 116]	5	0	10	50	85	15	80	–	–	60	50	70	70	20	40	–	–	Plant response rating, Spring Barley [2, 18]: 0; Plant response rating, Sugar beet [3, 19]: 95; Plant response rating, Spring Wheat [4, 19]: 100; Plant response rating, Downy brome [9, 19]: 70; Plant response rating, Wild mustard [11, 18]: 40
CCOC(=O)Cn1c(=O)on(C(=O)N(c2ccc(F)cc2)C(C)C)c1=O [Compound 128]	–	–	–	–	–	–	–	–	–	–	–	–	–	–	–	0	0	–
Cc1ccccc1Cn1c(=O)on(C(=O)N(c2ccc(Cl)cc2)C(C)C)c1=O [Compound 136]	–	–	–	–	–	–	–	–	–	–	–	–	–	–	–	4	9	–
C=C(C)Cn1c(=O)on(C(=O)N(c2ccc(F)cc2)C(C)C)c1=O [Compound 139]	–	–	–	–	–	–	–	98	98	–	–	–	–	–	–	–	–	–
